In series [1] the target is recombinant human DPPI (Cathepsin C) (Homo sapiens (Human), UniProt P53634). Kind of series: Inhibition of human DPPI (Cathepsin C). The format is biochemical. Particulars: recombinant human DPPI, substrate Gly-Arg-AMC, pH 6.0; read-out: Inhibition of DPPI IC50. As for the experimental part: Inhibition of Human DPPI (Cathepsin C)
The analysis of the data was performed by calculating the percentage of fluorescence in the presence of test compound in comparison to the fluorescence of the vehicle control after 20 subtracting the background fluorescence using the following formula: (RFU(sample)−RFU(background))*100/(RFU(control)−RFU(background))
Data from these calculations were used to generate IC50 values for inhibition of DPPI, respectively.

Series [2] has as its system neutrophil elastase activity in U937 cells. In words: Determination of neutrophil elastase activity in U937 cytosolic lysate preparation after incubation with test compound. The format is cell-based. The settings on record: Homo sapiens, U-937; U937 cells incubated 48 hours with compound, NE activity in lysate; read-out: Reduction of NE-activity in U937 cells IC50. As for the experimental part: Determination of Neutrophil Elastase Activity in U937 Cytosolic Lysate Preparation after Incubation with Test Compound Materials:
24 well Nunclon cell culture plates (No. 142475) and 96 well plates (No. 267245) were from Nunc.
Dimethylsulfoxid (DMSO) was from Sigma (Prod. No. D8418). Nonidet-P40 (NP40) was from USBiological (Prod. No. N3500)
Substrate, specific for Neutrophil elastase, was from Bachem (MeOSuc-Ala-Ala-Pro-Val-AMC; Prod. No. I-1270).
Human neutrophil elastase was from Calbiochem (Prod. No. 324681)
Tris-buffer (100 mM Tris; 1M NaCl; pH 7.5)
Tris-buffer+HSA 0.1%; Human Serum Albumin from Calbiochem (Cat#. 126658)
Serine-protease buffer (20 mM Tris; 100 mM NaCl; pH 7.5)+0.1% HSA
Serine protease lysis buffer: 20 mM Tris-HCl; 100 mM NaCl pH 7.5; +0.2% Nonidet-P40;
PBS: phosphate buffered saline, without Ca and Mg, from Gibco
U937 from ECACC (Cat. No. 85011440) cultured in suspension at 37° C. and 5% CO2.
Cell density: 0.2-1 Mio. Cells/ml.
Medium: RPMI1640 GlutaMAX (No. 61870) with 10% FCS from Gibco
Cell Seeding and Treatment:
Compounds in 100% DMSO were diluted in Medium (−FCS) with 10% DMSO and further diluted according to the experiment planned.
20 μl of the compound solution was transferred in the respective wells of the 24 well plate and diluted with 2 ml cell suspension/well containing 1×10^5 cells/ml (final concentration of DMSO=0.1%). Compound dilution factor=100
Compounds (up to 7 concentrations) were tested in triplicates with 3 wells for the DMSO 0.1% control, incubated for 48 hours without medium change at 37° C., 5% CO2 and 95% relative humidity.
Cell Harvesting and Cell Lysate:
Transfer the cell suspension in 2 ml 96 well assay block. Separate cells from medium by centrifugation (500×g; 10 min; RT); discard the supernatant. Resuspend in 1 ml PBS; centrifugation (500×g; 10 min; RT); wash cells twice with PBS. Add 80 μl Serine protease lysis buffer (ice cold) to the cell pellet; resuspend the pellet and store on ice for 10 minutes. Remove debris by centrifugation at 1000×g for 10 min at 4° C. Transfer 80-100 μl lysate supernatant in 96 well plate and store immediately at −80° C.
Neutrophil Elastase Activity Assay:
Frozen lysates were thaw at 37° C. for 10 minutes and stored on ice. Protein content was determined with Bradford protein assay. Lysates were diluted to 0.2-0.5 mg/ml protein in serine protease buffer+HSA.
Standard: NE (100 μg/ml stock solution in Tris-buffer; stored at −80° C.) was diluted in Tris-buffer+HSA to 750 ng/ml, and further serially diluted 1:2 for the standard curve. Buffer, blank, standard and lysate samples were transferred into 384 well plate
Blank: 5 μl Tris-buffer+10 μl Serine protease buffer+5 μl Substrate
Standard: 5 μl Tris-buffer+10 μl NE (diff. conc.)+5 μl Substrate
Lysate: 5 μl Tris-buffer+10 μl Lysat+5 μl Substrate
The increase in fluorescence (Ex360 nm/Em 460 nm) is determined after 30 minutes with a Molecular Device Spectramax M5 Fluorescence Reader. The result is interpolated to ng/mg lysate protein using excel formula functions. Percent inhibition in the compound-treated lysate samples is calculated relative to the DMSO-treated control-sample (100−(compound-sample*100)/control-sample)
A test compound will give values between 0% and 100% inhibition of neutrophil elastase. IC50 is calculated using Graphpad Prism; nonlinear fitting (log(inhibitor) vs. response—Variable slope). The IC50 value is interpolated as the concentration of test compound which leads to a neutrophil elastase activity reduction of 50% (relative to the DMSO-treated control).

A short description of series [3]: Determination of metabolic stability with human liver microsomes. The format is in vitro ADME. Particulars: pH 7.6; pooled human liver microsomes, 1 mg/ml protein, 1 μM compound, 37° C., NADPH; read-out: In vitro stability in human liver microsome incubations t1/2. As for the experimental part:
Determination of Metabolic Stability with Human Liver Microsomes
The metabolic degradation of the test compound is assayed at 37° C. with pooled human liver microsomes. The final incubation volume of 100 μl per time point contains TRIS buffer pH 7.6 (0.1 M), magnesium chloride (5 mM), microsomal protein (1 mg/ml) and the test compound at a final concentration of 1 μM. Following a short preincubation period at 37° C., the reactions are initiated by addition of beta-nicotinamide adenine dinucleotide phosphate, reduced form (NADPH, 1 mM) and terminated by transferring an aliquot into acetonitrile after different time points. Additionally, the NADPH-independent degradation is monitored in incubations without NADPH, terminated at the last time point. The [%] remaining test compound after NADPH independent incubation is reflected by the parameter c (control) (metabolic stability). The quenched incubations are pelleted by centrifugation (10′000 g, 5 min.) An aliquot of the supernatant is assayed by LC-MS/MS for the amount of parent compound.
The half-life (t1/2 INVITRO) is determined by the slope of the semilogarithmic plot of the concentration-time profile. The intrinsic clearance (CL_INTRINSIC) is calculated by considering the amount of protein in the incubation: CL_INTRINSIC [μl/min/mg protein]=(ln 2/(half-life [min]*protein content [mg/ml]))*1′000.

Series [4] concerns neutrophil elastase activity in BALF cell lysate. Kind of series: Target engagement mouse model: neutrophil elastase activity in BALF cell lysate after LPS challenge. Particulars: female Crl:NMRI mice, 0.5 mg/kg bid for 7 days, oral, LPS inhalation challenge. The format is in vivo. As for the experimental part: Target Engagement Mouse Model Compound Treatment:
To monitor the effect of the test compounds on neutrophil elastase activity in peripheral neutrophils, female Crl:NMRI mice were treated as follows:
Group 1 (6 animals): 0.5 mg/kg test compound in 0.5% Natrosol (pH 2-3)
Group 2 (6 animals): 0.5% Natrosol (pH 2-3)
Group 3 (2 animals): 0.5% Natrosol (pH 2-3)
Test compounds or Natrosol solution were applied on Monday to Friday at 7:00 am and 4:00 pm each day of the first week of the study and on Monday and Tuesday (7:00 am and 4:00 pm) the second week. Test compounds or Natrosol were applied orally.
LPS Challenge and Bronchioalveolar Lavage Preparation: […]
4 hours after the LPS challenge a bronchioalveolar lavage using 2×1 ml Hank's salt solution per animal was prepared from all animals and the cell numbers in the lavage fluid determined using a Sysmex XT-1800i. […]
NE activity in the BALF (bronchioalveolar lavage fluid) cell lysate was measured using the fluorescent NE substrate MeOSuc-Ala-Ala-Pro-Val-AMC (Bachem): 10 μl cell lysate were mixed with 5 μl assay buffer (20 mM Tris pH 7.5, 100 mM NaCl, 0.1% human serum albumin) and 5 μl substrate (1 mM in assay buffer) in a 384 well plate (Optiplate 384f, PerkinElmer). The reaction mixture was incubated for 60 min at room temperature and the fluorescence measured (360 nm excitation, 460 nm emission). […]

Some results are limits rather than exact numbers.

Chain of recombinant human DPPI (Cathepsin C) (P53634 231-394): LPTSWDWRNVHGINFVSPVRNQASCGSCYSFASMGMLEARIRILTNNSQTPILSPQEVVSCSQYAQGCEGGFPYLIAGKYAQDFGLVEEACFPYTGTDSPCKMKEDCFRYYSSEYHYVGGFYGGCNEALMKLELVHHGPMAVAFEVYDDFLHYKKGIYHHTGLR
Chain of recombinant human DPPI (Cathepsin C) (P53634 25-134): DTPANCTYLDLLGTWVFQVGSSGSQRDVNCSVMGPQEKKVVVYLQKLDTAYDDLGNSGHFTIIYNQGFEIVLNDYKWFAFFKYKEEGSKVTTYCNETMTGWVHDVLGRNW
Chain of recombinant human DPPI (Cathepsin C) (P53634 395-463): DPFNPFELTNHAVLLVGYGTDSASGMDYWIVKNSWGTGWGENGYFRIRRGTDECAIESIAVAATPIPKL

In the case of `N#C[C@H](Cc1ccc(-c2ccc3c(n2)C2(CCN(C4COC4)CC2)OC3)cc1F)NC(=O)[C@H]1N[C@@H]2CC[C@H]1C2` [Example 25, (1S,2S,4R)—N-[(1S)-1-cyano-2-[2-fluoro-4-[1′-(oxetan-3-yl)spiro[5H-furo[3,4-b]pyridine-7,4′-piperidine]-2-yl]phenyl]ethyl]-3-azabicyclo[2.2.1]heptane-2-carboxamide], the IC50 in series [1] worked out at 1.8 nM; in series [2], 1.6 nM. The half-life at 1 μM in series [3] is > 2.17 h. Also, the “Inhibition of neutrophil elastase activity in BALF lysate after the pretreatment with Cathepsin C inhibitor” value in series [4] was 94%.
In the same order, the values of `N#C[C@H](Cc1ccc(-c2ccc3c(c2)C2(CCN(C4COC4)CC2)OC3)cc1F)NC(=O)[C@H]1N[C@@H]2CC[C@H]1C2` [Example 1, (1S,2S,4R)—N-[(1S)-1-cyano-2-[2-fluoro-4-[1′-(oxetan-3-yl)spiro[1H-isobenzofuran-3,4′-piperidine]-5-yl]phenyl]ethyl]-3-azabicyclo[2.2.1]heptane-2-carboxamide] are 1.1 nM, 1 nM, > 2.17 h and 96%.
For the compound `CN1CCCC2(C1)C(=O)N(C)c1ccc(-c3ccc(C[C@@H](C#N)NC(=O)[C@H]4N[C@@H]5CC[C@H]4C5)c(F)c3)cc12` (some centres unmarked) [Example 17], the IC50 turned out to be 1.6 nM in series [1] and 0.6 nM in series [2]. For the same compound, the half-life at 1 μM in series [3] was found to be 1 h.
Consider `CN1CCC2(CC1)OCc1cnc(-c3ccc(C[C@@H](C#N)NC(=O)[C@H]4N[C@@H]5CC[C@H]4C5)c(F)c3)cc12` [Example 26, (1S,2S,4R)—N-[(1S)-1-cyano-2-[2-fluoro-4-(1′-methylspiro[3H-furo[3,4-c]pyridine-1,4′-piperidine]-6-yl)phenyl]ethyl]-3-azabicyclo[2.2.1]heptane-2-carboxamide], for which the IC50 in series [1] is 2 nM; in series [2] it was 4.6 nM. Further, the half-life at 1 μM in series [3] came out at 0.917 h.
For `CN1CCC2(CC1)OC(=O)c1cnc(-c3ccc(C[C@@H](C#N)NC(=O)[C@H]4N[C@@H]5CC[C@H]4C5)c(F)c3)cc12` [Example 19], in that order: 1 nM, 5 nM and > 2.17 h.
For `N#C[C@H](Cc1ccc(-c2ccc3c(c2)C2(CCNCC2)C(=O)N3)cc1F)NC(=O)[C@H]1N[C@@H]2CC[C@H]1C2` [Example 3], in that order: 0.3 nM, 503 nM and > 2.17 h.
